Molecular target: T1, Human OTUB1 wild-type (Homo sapiens, UniProt Q96FW1)
T1 construct: His tag (N); made in house; host or cells: E. coli BL21-CodonPlus (DE3)-RIPIL
Assay: Covalent modification of OTUB1 (adduct formation), mass spectrometry-based assay (OTUB1 covalent binders; selected CFTR or cGAS based bivalent compounds)
Type: binding
Details: covalent adduct formation with OTUB1 protein
Description: OTUB1 covalent binders were tested for their ability to form the covalent adduct with OTUB1 protein using a mass-spectrometry based assay.
Example 389. Assessment of the Covalent Modification of OTUB1 Protein by Selected OTUB1 Covalent Binders Using a Mass Spectrometry-Based Assay (FIG. 1)
OTUB1 protein (10 μM) was incubated with selecting compounds (2500 μM) at RT for 1 h. The adduct was qualified by mass spectrometry-based assays.
Example 398. Assessment of the Covalent Modification of OTUB1 Protein by Selected CFTR Based Bivalent Compounds Using Mass Spectrometry-Based Assay (FIG. 10)
OTUB1 protein (10 μM) was incubated with selecting bivalent compounds (2500 μM) at RT for 1 h. The adduct was qualified by mass spectrometry-based assays.
Human OTUB1 wild-type (NM_017670.3) and C23S mutation genes were optimized based on the codon preference of E. coli, synthesized and cloned into pET15b vector with a N-terminal His tag by Genscript, respectively. The plasmid was transferred to BL21-CodonPlus (DE3)-RIPIL Competent Cell (230280, Agilent Technologies) and the recombinant protein was induced expressed by 0.5 mM IPTG at 16° C. with shaking 200 rpm for 18 h. Induced cells were harvested by centrifugation and resuspended in cold lysis buffer (50 mM Tris-H—Cl pH 7.5, 150 mM NaCl, 25 mM imidazole pH 7.5, 0.01% IGEPAL, 5% Glycerol) in the presence of Pierce Protease Inhibitor tablets (PIA32963, Fisher Scientific) and 2 mM TCEP pH 7.5.
The cells were lysed by sonication, clarified by centrifugation, and the filtered supernatant loaded onto a 5 ml HisTrap HP affinity column (17524802, Cytiva) in AKTA system. The His-recombinant protein bound to column was washed using buffer A (50 mM Tris-HCl pH 7.5, 150 mM NaCl, 25 mM imidazole pH 7.5, 0.01% IGEPAL, 5% Glycerol) and eluted with buffer B (50 mM Tris-HCl pH 7.5, 150 mM NaCl, 250 mM imidazole pH 7.5, 0.01% IGEPAL, 5% Glycerol). The eluted fractions containing OTUB1 protein were concentrated and subjected to size exclusion chromatography using a 320 mL HiLoad 26/600 Superdex 200 pg column (28989336, Cytiva) under the buffer condition ([…] Tris-HCl pH 7.5, 150 mM NaCl, and 2 mM TCEP pH 7.5). The eluted fractions containing OTUB1 protein were concentrated, divided into aliquots and stored at −80° C. freezer for further usage.
Quality control of the OTUB1 proteins was performed by SDS-PAGE, Nanodrop and mass spectrometry.
Mass Spectrometry-Based Analysis of OTUB1-Covalent Ligand Adducts
To screen the covalent ligands, recombinant OTUB1 protein (10 μM) was respectively incubated with DMSO, EN523 or seven novel ligands (2500 μM) in reaction buffer (50 mM Tris-HCl pH 7.5, 150 mM NaCl, and 0.5 mM TCEP pH 7.5) for 1 h at room temperature.
Then, the total 500 μL reaction solution was exchanged and concentrated to 50 μL 50 mM ammonium bicarbonate with a 10 kDa MWCO centrifugal filter unit (UFC901024, Millipore) and diluted in MS buffer (30% ACN, 0.2% FA) to a final concentration of […]. Mass spectrometry detection was performed by an Agilent LC/MSD Time-Of-Flight (TOF) mass spectrometer (Agilent Technologies) equipped with an electrospray ion source. The data was analyzed by TOF Protein Confirmation Software. All experiments were performed in duplicate.

T1 sequence (Q96FW1 whole entry): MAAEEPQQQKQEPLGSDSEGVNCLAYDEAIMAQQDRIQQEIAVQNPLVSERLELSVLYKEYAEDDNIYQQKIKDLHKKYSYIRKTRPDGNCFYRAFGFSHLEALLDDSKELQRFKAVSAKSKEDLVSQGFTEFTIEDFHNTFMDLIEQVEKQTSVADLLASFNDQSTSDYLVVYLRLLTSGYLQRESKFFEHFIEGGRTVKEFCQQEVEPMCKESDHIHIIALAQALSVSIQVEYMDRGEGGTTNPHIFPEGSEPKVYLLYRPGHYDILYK

% of OTUB1 modified [%]	SMILES
92	CN(C)C/C=C/C(=O)N1C2CC1CN(C(=O)c1cc3c(s1)CCC3)C2 [XS190-50, (E)-1-(3-(5,6-dihydro-4H-cyclopenta[b]thiophene-2-carbonyl)-3,6-diazabicyclo[3.1.1]heptan-6-yl)-4-(dimethylamino)but-2-en-1-one]
92	CC(=O)Nc1ccc2sc(C(=O)N3CC4CC(C3)N4C(=O)/C=C/CN(C)C)cc2c1 [XS190-59, (E)-N-(2-(6-(4-(dimethylamino)but-2-enoyl)-3,6-diazabicyclo[3.1.1]heptane-3-carbonyl)benzo[b]thiophen-5-yl)acetamide]
88	CC(=O)N1CCc2sc(C(=O)N3CC4CC(C3)N4C(=O)/C=C/CN(C)C)cc2C1 [XS190-69, (E)-1-(3-(5-acetyl-4,5,6,7-tetrahydrothieno[3,2-c]pyridine-2-carbonyl)-3,6-diazabicyclo[3.1.1]heptan-6-yl)-4-(dimethylamino)but-2-en-1-one]
97	CC(=O)N1CCc2sc(N3CC4CCC(C3=O)N4C(=O)/C=C/CN(C)C)cc2C1 (stereo not drawn) [XS190-70, (E)-3-(5-acetyl-4,5,6,7-tetrahydrothieno[3,2-c]pyridin-2-yl)-8-(4-(dimethylamino)but-2-enoyl)-3,8-diazabicyclo[3.2.1]octan-2-one]
7	Cc1ccc(C(=O)N2CC3CCC2CN3C(=O)/C=C/CN(C)C)s1 (stereo not drawn) [XS190-77, (E)-4-(dimethylamino)-1-(5-(5-methylthiophene-2-carbonyl)-2,5-diazabicyclo[2.2.2]octan-2-yl)but-2-en-1-one]
7	Cc1ccc(C(=O)N2C[C@@H]3C[C@H]2CN3C(=O)/C=C/CN(C)C)s1 [XS190-80, (E)-4-(dimethylamino)-1-((1S,4S)-5-(5-methylthiophene-2-carbonyl)-2,5-diazabicyclo[2.2.1]heptan-2-yl)but-2-en-1-one]
10	Cc1ccc(C(=O)N2C[C@H]3C[C@@H]2CN3C(=O)/C=C/CN(C)C)s1 [XS190-81, (E)-4-(dimethylamino)-1-((1R,4R)-5-(5-methylthiophene-2-carbonyl)-2,5-diazabicyclo[2.2.1]heptan-2-yl)but-2-en-1-one]
49	CN(C)C/C=C/C(=O)N1C2CC1CN(C(=O)c1ccccc1)C2 [XS190-126, (E)-1-(3-benzoyl-3,6-diazabicyclo[3.1.1]heptan-6-yl)-4-(dimethylamino)but-2-en-1-one]
15	Cc1ccc(C(=O)NCC2CCN2C(=O)/C=C/CN(C)C)s1 (stereo not drawn) [XS190-127, (E)-N-((1-(4-(dimethylamino)but-2-enoyl)azetidin-2-yl)methyl)-5-methylthiophene-2-carboxamide]
47	CN(C)C/C=C/C(=O)N1C2CC1CN(C(=O)C1CCCC1)C2 [XS190-128, (E)-1-(3-(cyclopentanecarbonyl)-3,6-diazabicyclo[3.1.1]heptan-6-yl)-4-(dimethylamino)but-2-en-1-one]
48	CN(C)C/C=C/C(=O)N1C2CC1CN(C(=O)C1CCCCC1)C2 [XS190-129, (E)-1-(3-(cyclohexanecarbonyl)-3,6-diazabicyclo[3.1.1]heptan-6-yl)-4-(dimethylamino)but-2-en-1-one]
53	CC(=O)NCc1ccc(C(=O)N2CC3CC(C2)N3C(=O)/C=C/CN(C)C)s1 [XS190-130, (E)-N-((5-(6-(4-(dimethylamino)but-2-enoyl)-3,6-diazabicyclo[3.1.1]heptane-3-carbonyl)thiophen-2-yl)methyl)acetamide]
20	Cc1ocnc1C(=O)N1CC2CC(C1)N2C(=O)/C=C/CN(C)C [XS190-137, (E)-4-(dimethylamino)-1-(3-(5-methyloxazole-4-carbonyl)-3,6-diazabicyclo[3.1.1]heptan-6-yl)but-2-en-1-one]

Continued, molecule first:

SMILES	% of OTUB1 modified [%]
Cc1ccc(N2CCC3(CC2)CN(C(=O)/C=C/CN(C)C)C3)s1 [XS185-101, (E)-4-(dimethylamino)-1-(7-(5-methylthiophen-2-yl)-2,7-diazaspiro[3.5]nonan-2-yl)but-2-en-1-one]	23
Cc1ccc(N2CC3(CCN(C(=O)/C=C/CN(C)C)CC3)C2)s1 [XS185-109, (E)-4-(dimethylamino)-1-(2-(5-methylthiophen-2-yl)-2,7-diazaspiro[3.5]nonan-7-yl)but-2-en-1-one]	1
CN(C)C/C=C/C(=O)N1CC2(CC(C(=O)Nc3cc4c(s3)CCCC4)C2)C1 [XS185-114, (E)-2-(4-(dimethylamino)but-2-enoyl)-N-(4,5,6,7-tetrahydrobenzo[b]thiophen-2-yl)-2-azaspiro[3.3]heptane-6-carboxamide]	18
CN(C)C/C=C/C(=O)N1CCN(c2cc3ccccc3[nH]2)C(=O)C1 [XS185-116, (E)-4-(4-(dimethylamino)but-2-enoyl)-1-(1H-indol-2-yl)piperazin-2-one]	55
CN(C)C/C=C/C(=O)N1CC(C(=O)NC2CCCC2)C1 [XS185-131, (E)-N-cyclopentyl-1-(4-(dimethylamino)but-2-enoyl)azetidine-3-carboxamide]	18
CN(C)C/C=C/C(=O)N1CC2(CCN(c3cc4ccccc4s3)CC2)C1 [XS185-147, (E)-1-(7-(benzo[b]thiophen-2-yl)-2,7-diazaspiro[3.5]nonan-2-yl)-4-(dimethylamino)but-2-en-1-one]	15
Cc1ccc(C(=O)NC2CN(C(=O)/C=C/CN(C)C)C2)s1 [XS190-9, (E)-N-(1-(4-(dimethylamino)but-2-enoyl)azetidin-3-yl)-5-methylthiophene-2-carboxamide]	38
CN(C)C/C=C/C(=O)N1C2CCC1C(=O)N(c1cc3ccccc3s1)C2 (stereo not drawn) [XS190-38, (E)-3-(benzo[b]thiophen-2-yl)-8-(4-(dimethylamino)but-2-enoyl)-3,8-diazabicyclo[3.2.1]octan-2-one]	100
CN(C)C/C=C/C(=O)N1C2CCC1C(=O)N(c1csc3ccccc13)C2 (stereo not drawn) [XS190-44, (E)-3-(benzo[b]thiophen-3-yl)-8-(4-(dimethylamino)but-2-enoyl)-3,8-diazabicyclo[3.2.1]octan-2-one]	97
CN(C)C/C=C/C(=O)N1C2CCC1C(=O)N(c1ccc(-c3ccccc3)s1)C2 (stereo not drawn) [XS190-45, (E)-8-(4-(dimethylamino)but-2-enoyl)-3-(5-phenylthiophen-2-yl)-3,8-diazabicyclo[3.2.1]octan-2-one]	90
CN(C)C/C=C/C(=O)N1C2CC1CN(C(=O)c1cc3ccccc3s1)C2 [XS190-46, (E)-1-(3-(benzo[b]thiophene-2-carbonyl)-3,6-diazabicyclo[3.1.1]heptan-6-yl)-4-(dimethylamino)but-2-en-1-one]	90
CN(C)C/C=C/C(=O)N1C2CC1CN(C(=O)c1csc3ccccc13)C2 [XS190-47, (E)-1-(3-(benzo[b]thiophene-3-carbonyl)-3,6-diazabicyclo[3.1.1]heptan-6-yl)-4-(dimethylamino)but-2-en-1-one]	70
CN(C)C/C=C/C(=O)N1C2CC1CN(C(=O)c1cc3c(s1)CCCC3)C2 [XS190-48, (E)-4-(dimethylamino)-1-(3-(4,5,6,7-tetrahydrobenzo[b]thiophene-2-carbonyl)-3,6-diazabicyclo[3.1.1]heptan-6-yl)but-2-en-1-one]	90
CN(C)C/C=C/C(=O)N1C2CC1CN(C(=O)c1csc3c1CCCC3)C2 [XS190-49, (E)-4-(dimethylamino)-1-(3-(4,5,6,7-tetrahydrobenzo[b]thiophene-3-carbonyl)-3,6-diazabicyclo[3.1.1]heptan-6-yl)but-2-en-1-one]	70

Reference: patent US20260315604A1, “OTUB1 Small-Molecule Binders and OTUB1-recruiting Deubiquitinase-targeting Chimeras (DUBTACs)” (ICAHN SCHOOL OF MEDICINE AT MOUNT SINAI, priority 2023, published 2026)
